In patent publication US12655116B2, “Substituted isophthalic acid diamides” (Bayer Aktiengesellschaft, priority 2020, dated 2026):

Tests used:
ABUTH [1] = assay: Pre-emergence herbicidal action against ABUTH; assay type: in vivo, Abutilon theophrasti; details: for Pre-emergence action against ABUTH (herbicidal activity): 80 g/ha, scored visually after 3 weeks vs untreated controls (100% = plants have died, 0% = like control plants); for Pre-emergence action against ABUTH (herbicidal activity in percent): dosage 20 g/ha, scored visually after 3 weeks vs untreated controls, 100% = plants have died, 0% = like control plants
How it was run: (§1)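 Sandy loam pots, seeds covered with soil, then surface-treated with WP or EC formulations at 600–800 l/ha water plus 0.2% wetting agent. Greenhouse, 3 weeks. Percent damage vs untreated controls.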

ALOMY = assay: Pre-emergence herbicidal action against ALOMY; assay type: in vivo, Alopecurus myosuroides; details: 80 g/ha, pre-emergence, scored visually after 3 weeks vs untreated controls (100% = plants have died, 0% = like control plants)
How it was run: as §1

AMARE [2] = assay: Pre-emergence herbicidal action against AMARE; assay type: in vivo, Amaranthus retroflexus
How it was run: as §1

AVEFA [3] = assay: Pre-emergence herbicidal action against AVEFA; assay type: in vivo, Avena fatua; details: 80 g/ha, pre-emergence
How it was run: as §1

MATIN [4] = assay: Pre-emergence herbicidal action against MATIN; assay type: in vivo, Matricaria inodora
How it was run: as §1

POLCO = assay: Pre-emergence herbicidal action against POLCO; assay type: in vivo, Polygonum convolvulus
How it was run: as §1

SETVI [5] = assay: Pre-emergence herbicidal action against SETVI; assay type: in vivo, Setaria viridis; details: dosage 80 g/ha
How it was run: as §1

STEME [6] = assay: Pre-emergence herbicidal action against STEME; assay type: in vivo, Stellaria media
How it was run: as §1

VERPE [7] = assay: Pre-emergence herbicidal action against VERPE; assay type: in vivo, Veronica persica; details: dosage 80 g/ha
How it was run: as §1

VIOTR [8] = assay: Pre-emergence herbicidal action against VIOTR; assay type: in vivo, Viola tricolor
How it was run: as §1

DIGSA [9] = assay: Pre-emergence herbicidal action against DIGSA; assay type: in vivo, Digitaria sanguinalis
How it was run: as §1

ABUTH [10] = assay: Post-emergence herbicidal action against ABUTH; assay type: in vivo, Abutilon theophrasti; details: visual assessment about 3 weeks after treatment vs untreated controls
How it was run: (§2)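 Visual % rating (0% = as untreated, 100% = dead) ~3 wk after spraying one-leaf-stage plants grown in sandy loam; WP/EC in water at 600–800 l/ha, 0.2% wetting agent.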

AMARE [11] = assay: Post-emergence herbicidal action against AMARE; assay type: in vivo, Amaranthus retroflexus; details: 20 g/ha, visual assessment about 3 weeks after treatment, 100% = plants have died, 0% = like control plants
How it was run: as §2

AVEFA [12] = assay: Post-emergence herbicidal action against AVEFA; assay type: in vivo, Avena fatua; details: 20 g/ha, visual assessment about 3 weeks after treatment, 100% = plants have died, 0% = like control plants
How it was run: as §2

ECHCG [13] = assay: Post-emergence herbicidal action against ECHCG; assay type: in vivo, Echinochloa crus-galli
How it was run: as §2

MATIN [14] = assay: Post-emergence herbicidal action against MATIN; assay type: in vivo, Matricaria inodora
How it was run: as §2

PHBPU = assay: Post-emergence herbicidal action against PHBPU; assay type: in vivo, Pharbitis purpurea
How it was run: as §2

STEME [15] = assay: Post-emergence herbicidal action against STEME; assay type: in vivo, Stellaria media
How it was run: as §2

VERPE [16] = assay: Post-emergence herbicidal action against VERPE; assay type: in vivo, Veronica persica; details: 20 g/ha
How it was run: as §2

VIOTR [17] = assay: Post-emergence herbicidal action against VIOTR; assay type: in vivo, Viola tricolor; details: 20 g/ha
How it was run: as §2

ECHCG [18] = assay: Pre-emergence herbicidal action against ECHCG; assay type: in vivo, Echinochloa crus-galli; details: 80 g/ha
How it was run: as §1

SETVI [19] = assay: Post-emergence herbicidal action against SETVI; assay type: in vivo, Setaria viridis
How it was run: as §2

DIGSA [20] = assay: Post-emergence herbicidal action against DIGSA; assay type: in vivo, Digitaria sanguinalis
How it was run: as §2

[21] = 20 g/ha, scored visually after 3 weeks vs untreated controls, 100% = plants have died, 0% = like control plants
[22] = 80 g/ha, scored visually after 3 weeks vs untreated controls (100% = plants have died, 0% = like control plants)

SMILES: CCn1nnnc1NC(=O)c1ccc(C(F)F)c(C(=O)NC)c1C [Example 2-44]
- Pre-emergence action against ABUTH (herbicidal activity) (ABUTH [1]): 100%
- Pre-emergence action against ABUTH (herbicidal activity in percent) (ABUTH [1]): 100%
- Pre-emergence action against ALOMY (herbicidal activity) (ALOMY): 80%
- Pre-emergence action against AMARE in % (AMARE [2]; [21]): 100%
- Pre-emergence action against AMARE in % (AMARE [2]; [22]): 100%
- Pre-emergence action against AVEFA in % (AVEFA [3]): 90%
- Pre-emergence action against MATIN in % (MATIN [4]; dosage 20 g/ha): 90%
- Pre-emergence action against MATIN in % (MATIN [4]; dosage 80 g/ha): 100%
- Pre-emergence action against POLCO in % (POLCO; dosage 20 g/ha): 80%
- Pre-emergence action against POLCO in % (POLCO; dosage 80 g/ha): 90%
- Pre-emergence action against SETVI in % (SETVI [5]): 100%
- Pre-emergence action against STEME in % (STEME [6]; dosage 20 g/ha): 90%
- Pre-emergence action against STEME in % (STEME [6]; dosage 80 g/ha): 100%
- Pre-emergence action against VERPE in % (VERPE [7]): 90%
- Pre-emergence action against VIOTR in % (VIOTR [8]; dosage 20 g/ha): 100%
- Pre-emergence action against VIOTR in % (VIOTR [8]; dosage 80 g/ha): 100%
- Pre-emergence action against DIGSA in % (DIGSA [9]; dosage 20 g/ha): 100%
- Pre-emergence action against DIGSA in % (DIGSA [9]; dosage 80 g/ha): 100%
- Post-emergence action against ABUTH in % (ABUTH [10]; dosage 5 g/ha): 80%
- Post-emergence action against ABUTH in % (ABUTH [10]; dosage 20 g/ha): 90%
- Post-emergence action at 20 g/ha against AMARE in % (AMARE [11]): 100%
- Post-emergence action at 20 g/ha against AVEFA in % (AVEFA [12]): 80%
- Post-emergence action against ECHCG in % (ECHCG [13]; dosage 20 g/ha): 80%
- Post-emergence action against MATIN in % (MATIN [14]; dosage 5 g/ha): 80%
- Post-emergence action against MATIN in % (MATIN [14]; dosage 20 g/ha): 80%
- Post-emergence action against PHBPU in % (PHBPU; dosage 5 g/ha): 80%
- Post-emergence action against PHBPU in % (PHBPU; dosage 20 g/ha): 80%
- Post-emergence action against STEME in % (STEME [15]; 20 g/ha): 80%
- Post-emergence action against VERPE in % (VERPE [16]): 80%
- Post-emergence action against VIOTR in % (VIOTR [17]): 80%

SMILES: CNC(=O)c1c(C(F)F)ccc(C(=O)Nc2nnco2)c1SC [Example 5-74]
- Pre-emergence action against ABUTH (herbicidal activity) (ABUTH [1]): 100%
- Pre-emergence action against ABUTH (herbicidal activity in percent) (ABUTH [1]): 80%
- Pre-emergence action against AMARE in % (AMARE [2]; [21]): 100%
- Pre-emergence action against AMARE in % (AMARE [2]; [22]): 100%
- Pre-emergence action against AVEFA in % (AVEFA [3]): 80%
- Pre-emergence action against ECHCG in % (ECHCG [18]): 90%
- Pre-emergence action against MATIN in % (MATIN [4]; dosage 20 g/ha): 80%
- Pre-emergence action against MATIN in % (MATIN [4]; dosage 80 g/ha): 90%
- Pre-emergence action against POLCO in % (POLCO; dosage 20 g/ha): 80%
- Pre-emergence action against POLCO in % (POLCO; dosage 80 g/ha): 80%
- Pre-emergence action against SETVI in % (SETVI [5]): 90%
- Pre-emergence action against STEME in % (STEME [6]; dosage 20 g/ha): 90%
- Pre-emergence action against STEME in % (STEME [6]; dosage 80 g/ha): 100%
- Pre-emergence action against VIOTR in % (VIOTR [8]; dosage 80 g/ha): 100%
- Pre-emergence action against DIGSA in % (DIGSA [9]; dosage 20 g/ha): 90%
- Pre-emergence action against DIGSA in % (DIGSA [9]; dosage 80 g/ha): 100%
- Post-emergence action against ABUTH in % (ABUTH [10]; dosage 5 g/ha): 90%
- Post-emergence action against ABUTH in % (ABUTH [10]; dosage 20 g/ha): 90%
- Post-emergence action at 20 g/ha against AMARE in % (AMARE [11]): 100%
- Post-emergence action at 20 g/ha against AVEFA in % (AVEFA [12]): 80%
- Post-emergence action against ECHCG in % (ECHCG [13]; dosage 5 g/ha): 80%
- Post-emergence action against ECHCG in % (ECHCG [13]; dosage 20 g/ha): 80%
- Post-emergence action against PHBPU in % (PHBPU; dosage 20 g/ha): 100%
- Post-emergence action against SETVI in % (SETVI [19]; dosage 5 g/ha): 80%
- Post-emergence action against SETVI in % (SETVI [19]; dosage 20 g/ha): 90%
- Post-emergence action against STEME in % (STEME [15]; 20 g/ha): 90%
- Post-emergence action against STEME in % (STEME [15]; dosage 5 g/ha): 80%
- Post-emergence action against DIGSA in % (DIGSA [20]; 5 g/ha): 90%
- Post-emergence action against DIGSA (DIGSA [20]; 20 g/ha): 90%
